Test results: EP0726761B1, “MICROPARTICULAR PHARMACEUTICAL COMPOSITIONS IN MICELLAR FORM” (ISOMED, Inc., priority 1993, dated 1995)

Columns and labels:
P388 mouse leukemia = P388 mouse leukemia model, survival time; type: in vivo; settings: 1.25 mg/kg intraperitoneally on Study Day-1; female mice inoculated with P388 on Day-0
Procedure: The P388 mouse leukemia model was prepared according to the method described by Daoud and Juliano in Cancer Res. 48: 5518 (1986). Female mice were intraperitoneally inoculated with P388 mouse leukemia (1 million cells/0.1 ml) on Study Day-0. The study drugs were intraperitoneally injected on Study Day-1. […]

intestinal membranes = settings: Tagesson et al., Gut 26:369 (1985); cited from earlier work

## CC[C@]1(O)C[C@H]2CN(CCc3c([nH]c4ccccc34)[C@@](C(=O)OC)(c3cc4c(cc3OC)N(C=O)[C@H]3[C@@](O)(C(=O)OC)[C@H](OC(C)=O)[C@]5(CC)C=CCN6CC[C@]43[C@@H]65)C2)C1 [Vincristin, vincristin]
P388 mouse leukemia
  MEAN SURVIVAL TIME: 21.2 days

## sn-1-acyl-3-glycerophosphorylcholine [lyso-PC]
Intestinal membranes
  concentration inducing histopathological damage to intestinal membranes: 0.01-1 mM
